The text below walks through data of article PMC4778748 (Bioorganic & medicinal chemistry, 2016).

By inhibition is commonly meant the share of the control response that was lost under treatment. In general, Ki refers to a measure of affinity in units of concentration, obtained from inhibition or displacement. The low end stands for tighter binding, the high end for weaker binding. Usually EC50 stands for the concentration giving half of the maximal effect. For orientation: IC50 means the concentration at which inhibition is half-maximal.

The conditions of data set [1]: cited from earlier work.
The subject of data set [2] is dog ortholog of 12/15-LOX. The conditions noted are these: cited from earlier work.
The test system of data set [3] is rat ortholog of 12/15-LOX. The settings on record: cited from earlier work.
Data set [4] has as its target T1, h12/15-LOX (Homo sapiens, UniProt P16050).
T1 sequence (P16050 1-662): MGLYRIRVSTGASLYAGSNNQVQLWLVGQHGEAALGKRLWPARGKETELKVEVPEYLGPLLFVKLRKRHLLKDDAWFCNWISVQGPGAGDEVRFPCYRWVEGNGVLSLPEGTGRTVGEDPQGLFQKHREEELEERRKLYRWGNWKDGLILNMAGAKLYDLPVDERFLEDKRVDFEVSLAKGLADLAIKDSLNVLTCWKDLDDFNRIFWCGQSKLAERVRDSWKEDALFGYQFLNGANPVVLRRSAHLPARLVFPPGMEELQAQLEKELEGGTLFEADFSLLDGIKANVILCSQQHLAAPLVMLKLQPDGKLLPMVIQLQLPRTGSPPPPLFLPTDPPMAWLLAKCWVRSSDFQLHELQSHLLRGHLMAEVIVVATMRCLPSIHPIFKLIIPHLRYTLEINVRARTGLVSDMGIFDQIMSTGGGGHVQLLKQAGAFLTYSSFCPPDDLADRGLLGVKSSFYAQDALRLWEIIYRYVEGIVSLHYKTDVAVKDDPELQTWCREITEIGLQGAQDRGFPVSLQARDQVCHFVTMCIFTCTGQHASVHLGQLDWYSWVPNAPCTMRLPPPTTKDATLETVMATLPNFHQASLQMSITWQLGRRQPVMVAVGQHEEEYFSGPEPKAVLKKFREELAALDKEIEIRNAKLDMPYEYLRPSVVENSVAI
Put plainly: Lipoxygenase UV-Vis-based IC50 assay. In kind it is biochemical. The conditions noted are these: for loss of potency against h12/15-LOX relative to parent: SAR comparison of IC50 values.

The nature of data set [5]: Solubility limit of inhibitor in enzyme assay. The format is physicochemical. The settings on record: concentrations above 35 µM.
Data set [6] has as its target T1, h12/15-LOX. As to the kind of experiment: Pseudoperoxidase assay. The settings on record: 20 µM inhibitor, 20 µM 13-HpODE, 60 nM enzyme.
The target in data set [7] is T1, h12/15-LOX. Put plainly: Steady-state inhibition kinetics.
A further data set has as its system HT-22 cells. As to the kind of experiment: HT-22 cellular assay. The settings on record: Mus musculus, HT-22, read-out: approximate cellular EC50 (ex vivo IC50) in HT-22. In kind it is cell-based.
For data set [8] the following is noted: cited from earlier work. This is another data set of the same source.
For data set [9] the following is noted: cited from earlier work. This is another data set of the same source.
The subject of data set [10] is rabbit reticulocyte 12/15-LOX. The conditions noted are these: cited from earlier work.
In a further data set the target is T2, h5-LOX (Homo sapiens, UniProt P09917).
T2 sequence (P09917 1-674): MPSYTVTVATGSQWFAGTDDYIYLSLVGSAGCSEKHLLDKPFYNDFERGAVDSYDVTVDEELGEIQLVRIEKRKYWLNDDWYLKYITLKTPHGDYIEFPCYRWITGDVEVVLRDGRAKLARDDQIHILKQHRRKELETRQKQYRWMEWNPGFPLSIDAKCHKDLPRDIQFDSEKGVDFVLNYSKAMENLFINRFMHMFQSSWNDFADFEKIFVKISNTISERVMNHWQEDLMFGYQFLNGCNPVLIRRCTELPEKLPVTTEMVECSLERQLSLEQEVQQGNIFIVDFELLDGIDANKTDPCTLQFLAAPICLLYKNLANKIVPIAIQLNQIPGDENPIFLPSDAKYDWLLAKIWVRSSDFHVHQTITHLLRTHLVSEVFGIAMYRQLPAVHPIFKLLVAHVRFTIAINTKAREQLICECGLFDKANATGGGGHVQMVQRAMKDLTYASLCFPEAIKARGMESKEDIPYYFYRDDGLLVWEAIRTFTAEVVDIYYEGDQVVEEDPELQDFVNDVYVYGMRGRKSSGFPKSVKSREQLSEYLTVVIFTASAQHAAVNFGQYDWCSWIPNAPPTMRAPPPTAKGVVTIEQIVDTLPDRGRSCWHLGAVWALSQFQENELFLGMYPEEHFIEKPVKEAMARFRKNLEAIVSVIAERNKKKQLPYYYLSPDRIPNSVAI
As to the kind of experiment: Selectivity assay. The format is biochemical. The settings on record: read-out: inhibition of h5-LOX (positive control).

For `O=C(Nc1ccc(F)cc1Cl)c1c[nH]nn1` [BLX-2477, N-(2-chloro-4-fluorophenyl)triazole-4-carboxamide], in data set [1], the “off-target effects in mini-pigs” value is on record as “adverse off-target effects”. In data set [2], the “potency against dog ortholog” value is listed as “did not exhibit potency”. Further, the “potency against rat ortholog” value in [3] was “did not exhibit potency”.

Consider `Cc1ccc(O)c(-c2cc(C(=O)NCc3ccccc3)[nH]n2)c1` [Compound 3], for which the “loss of potency against h12/15-LOX relative to parent” value at h12/15-LOX [4] is reported as “over 10 fold”.

`COc1ccc(C(=O)c2c[nH]nc2-c2cc(C)ccc2O)cc1` [Compound 4]: the “loss of potency against h12/15-LOX relative to parent” value at h12/15-LOX [4] is given as “over 10 fold”.

For `Cc1ccc(-c2cc(-c3ccc(C)cc3O)[nH]n2)cc1` [Compound 18], at h12/15-LOX [4], the “loss of potency against h12/15-LOX relative to parent” value is reported as “greater than 15 fold”.

Regarding `Cc1ccc(O)c(-c2cc(-c3ccccc3C)[nH]n2)c1` [Compound 99089], the “solubility in assay buffer” value in [5] is given as “solubility problems”. The inhibition at 20 µM at h12/15-LOX [4] (read-out: %Inhibition (20 µM), 20 µM inhibitor, 10 µM AA, 0.01% Triton X-100) is greater than 90%. On h12/15-LOX [6], the “degradation of 13-HpODE (redox activity)” value is “not observed”. Further, at h12/15-LOX [7], the inhibition constant Ki amounted to 6 ± 3.3 µM. The mode of inhibition entry at h12/15-LOX [7] (steady-state kinetics) is “mixed type inhibitor”. The EC50 in the data set on HT-22 cells is roughly 10 µM.

In the case of `O=C(OCC#CCSc1nnc(-c2cccc3ccccc23)o1)c1cccs1` [ML094, 4-(5-(Naphthalen-1-yl)-1,3,4-oxadiazol-2-ylthio)but-2-ynylthiophene-2-carboxylate], the “activity in cell-based assays” value in [8] is recorded as “lacks activity”.

Take `CNc1oc(-c2cccc3ccccc23)nc1C#N` [ML351, 5-(methylamino)-2-(naphthalene-1-yl)oxazole-4-carbonitrile]: the “in vivo activity in mice” value in data set [9] is on record as “exhibits in vivo activity”.

As for `c1ccc2c(c1)SCc1c-2[nH]c2ccccc12` [PD-146176], the IC50 in data set [10] was 810 nM.

On to `CC(c1cc2ccccc2s1)N(O)C(N)=O` (stereo not shown) [Zileuton], for which, at h5-LOX, the inhibition at 20 µM worked out at 97%.
